Reference: patent USRE47193E1, “Selectively substituted quinoline compounds” (EISAI R&D MANAGEMENT CO., LTD., priority 2013, dated 2019)

system: Human TLR7/8; assay: Human PBMC cell-based assay, TLR7/8 stimulus (RNA-Ig), cytokine ELISA; details: primary human PBMC assay, TLR7/8 potency; ligand not given; read-out: Human PBMCs IC50
Procedure: Human PBMC Cell-Based Assay. Human peripheral blood mononuclear cells (PBMC) were isolated from freshly-drawn heparinized (10 USP units/ml, Hospira, Lakeforest, Ill.) healthy donor whole blood by density gradient (Histopaque® 1077, Sigma, Inc., St. Louis, Mo.). Briefly, 25 ml blood was diluted with 15 ml PBS (without Ca^2+, Mg^2+) in a 50 ml conical tube, and 12 ml Histopaque was underlaid using a spinal needle. Tubes were centrifuged for 45 minutes at 1200 rpm (350×g), and PBMC were collected from the buffy coat. Cells were then washed twice in PBS, and red blood cells were lysed by suspension in 5 ml ammonium chloride solution (1× Red Blood Cell Lysis Buffer, eBioscience) for 5 minutes at room temperature. After a final wash in PBS, PBMC were resuspended at a final concentration of 2×10^6/ml in RPMI-1640 media with L-glutamine (Invitrogen) and supplemented with 25 mM HEPES (Mediatech, Inc, Manassas Va.), 10% fetal bovine serum (HyClone, Logan, Utah), and Penicillin-Streptomycin-Glutamine (Mediatech) and plated at 100 ul/well (2×10^5 cells/well) in tissue culture treated 96-well plates (Falcon).
Antagonist compounds solubilized and serial diluted in 100% DMSO were added in triplicate to cells to yield a final concentration of 0.1% DMSO (v/v). Hydroxychloroquine (Acros Organics) solubilized and serial diluted in PBS was added in triplicate to cells. PBMC were incubated with antagonist compounds or HCQ for 30 minutes at 37° C., 5% CO2 before adding various TLR agonist reagents in 100 ul complete media per well as follows (final concentrations indicated): R848 (Resiquimod; GLSynthesis, Worcester, Mass.) at 1 uM for TLR7 and TLR8, LPS (Sigma) at 10 ng/ml for TLR4, and CpG-2216 (InvivoGen) at 5 ug/ml for TLR9. To prepare a TLR7/8 agonist that mimics RNA-containing auto-antibody immune complexes in lupus patients, a 26-mer RNA with a sequence derived from human U1 snRNA stem loop IV [(sequence: […]-[…] (SEQ ID NO: 2) with phosphorothioate backbone] was synthesized (Dharmacon, Inc., Lafayette, Colo.), which has been shown previously to be a potent TLR7 and TLR8 agonist. This RNA molecule was diluted to 2.5 μM in serum-free RPMI, and mouse anti-human single stranded DNA monoclonal antibody (MAB3034, Millipore, Inc., Billerica, Mass.), which also cross-reacts with RNA, was added at a 1:25 dilution or at 1 ug/ml. The resulting “RNA-Ig” stimulus was incubated at room temperature for 15-30 minutes before adding to cells. PBMC were incubated with the various TLR agonists for 20 hours at 37° C., 5% CO2. Cell culture supernatants were collected, and levels of various human cytokines were assessed as indicated by standard ELISA procedure according to the manufacturer's recommended protocol (BD Biosciences, Inc., San Diego, Calif.). In a subsequent assay (Table 6) the ability of ER-899742 to block stimulation of normal PBMC by various TLR7/8 ligands, but not DNA-mediated activation of TLR9, was examined. In this assay cells were plated at 1×10^5 cells/well in 100 ul in 96-well plates.

SMILES	IC50 [nM]
CC1CN(c2ccc(C#N)c3ncccc23)CC(CN2C(C)CCCC2C)O1 (stereo not shown) [ER-886950]	114
COc1ccc(NC[C@H]2CN(c3ccc(C#N)c4ncccc34)C[C@@H](C)O2)nc1 [ER-886855]	34
C[C@@H]1CN(c2ccc(C#N)c3ncccc23)C[C@H](C(=O)NCCN(C)C)O1 [ER-899154]	14
CC1CN(c2ccc(C#N)c3ncccc23)CC(CN2CCN(c3ccncc3)CC2)O1 (stereo not shown) [ER-888286]	223
CC1CN(c2ccc(C#N)c3ncccc23)CC(CN2CC(N3CCC(N)CC3)C2)O1 (stereo not shown) [ER-892253]	66
C[C@@H]1CN(c2ccc(C#N)c3ncccc23)C[C@H](CNc2cccc(-c3ccccc3)n2)O1 [ER-887589]	36
CCC[C@H]1CN(c2ccc(C#N)c3ncccc23)C[C@@H](C)O1 [ER-886131]	98
C[C@@H]1CN(c2ccc(C#N)c3ncccc23)C[C@H](CN2C[C@@H](C)O[C@@H](C)C2)O1 [ER-888204]	22
CC1CN(c2ccc(C#N)c3ncccc23)CC(CN2CCN(c3ccccn3)CC2)O1 (stereo not shown) [ER-888285]	14
CC1CN(c2ccc(C#N)c3ncccc23)CC(C(=O)NCCF)O1 (stereo not shown) [ER-898914]	168
CC1CN(CC2CN(c3ccc(C#N)c4ncccc34)CC(C)O2)C(C)CN1 (stereo not shown) [ER-887260]	4
CNC(=O)[C@H]1CN(c2ccc(C#N)c3ncccc23)C[C@@H](C)O1 [ER-899431]	347
CCN1CCC(NC(=O)[C@H]2CN(c3ccc(C#N)c4ncccc34)C[C@@H](C)O2)CC1 [ER-899626]	1
CC1CN(c2ccc(C#N)c3ncccc23)CC(C(=O)NCC2COC2)O1 (stereo not shown) [ER-899121]	142
CC1CN(c2ccc(C#N)c3ncccc23)CC(C(=O)NC(CO)C(C)(C)C)O1 (stereo not shown) [ER-897940]	21
CC1CN(c2ccc(C#N)c3ncccc23)CC(C(=O)NC2CCCCC2O)O1 (stereo not shown) [ER-897938]	16
C[C@@H]1CN(c2ccc(C#N)c3ncccc23)C[C@H](CNc2cc(-c3ccccc3)ccn2)O1 [ER-887252]	2
CC1CNCC(CNC(=O)C2CN(c3ccc(C#N)c4ncccc34)CC(C)O2)O1 (stereo not shown) [ER-899366]	1
CNCCNC(=O)C1CN(c2ccc(C#N)c3ncccc23)CC(C)O1 (stereo not shown) [ER-899140]	11
CC1CN(c2ccc(C#N)c3ncccc23)CC(CN2CCC(CO)CC2)O1 (stereo not shown) [ER-889557]	85
Cc1cc(CN2CCC(N3CCCCC3)CC2)cc(-c2ccc(C#N)c3ncccc23)c1 [ER-889504]	2
CC1CN(c2ccc(C#N)c3ncccc23)CC(C(=O)NC2CC3(CNC3)C2)O1 (stereo not shown) [ER-899479]	2
CC(C(=O)NC[C@H]1CN(c2ccc(C#N)c3ncccc23)C[C@@H](C)O1)c1ccccc1 (stereo partly shown) [ER-886360]	486

SMILES	IC50 [nM]
C[C@@H]1CN(c2ccc(C#N)c3ncccc23)C[C@H](CN2CC(NS(C)(=O)=O)C2)O1 [ER-894154]	143
CC1CN(c2ccc(C#N)c3ncccc23)CC(C(=O)NC2CNC2)O1 (stereo not shown) [ER-897964]	20
C[C@@H]1CN(c2ccc(C#N)c3ncccc23)C[C@H](Cn2cc(C3CCCCC3)nn2)O1 [ER-888603]	7
CC1CN(c2ccc(C#N)c3ncccc23)CC(C(=O)N2CCC(N3CCCCC3)CC2)O1 (stereo not shown) [ER-895477]	13
CC1CN(c2ccc(C#N)c3ncccc23)CC(C(=O)NCC2CN(C)CCO2)O1 (stereo not shown) [ER-898707]	2
CC1CN(c2ccc(C#N)c3ncccc23)CC(CNc2ncccn2)O1 (stereo not shown) [ER-886787]	76
CC1CN(c2ccc(C#N)c3ncccc23)CC(C(=O)NCC2CN(C)CCO2)O1 (stereo not shown) [ER-897945]	2
C[C@@H]1CN(c2ccc(C#N)c3ncccc23)C[C@H](C(=O)Nc2n[nH]cc2C#N)O1 [ER-899295]	32
CC1CCN(C[C@H]2CN(c3ccc(C#N)c4ncccc34)C[C@@H](C)O2)CC1 [ER-887141]	49
CC1CN(c2ccc(C#N)c3ncccc23)CC(C(=O)NCC2(F)CCNCC2)O1 (stereo not shown) [ER-899019]	14
CC1CN(c2ccc(C#N)c3ncccc23)CC(C(=O)NC(CO)C(C)C)O1 (stereo not shown) [ER-897828]	21
Cc1nn(C)cc1C(=O)NC1CCN(CC2CN(c3ccc(C#N)c4ncccc34)CC(C)O2)CC1 (stereo not shown) [ER-893926]	8
Cc1nc2cc(NC[C@H]3CN(c4ccc(C#N)c5ncccc45)C[C@@H](C)O3)ccc2n1C [ER-886608]	1
CC1CN(c2ccc(C#N)c3ncccc23)CC(C(=O)NC2CCCNC2)O1 (stereo not shown) [ER-897967]	13
CC1CN(c2ccc(C#N)c3ncccc23)CC(CN2CCCC2CO)O1 (stereo not shown) [ER-886866]	50
CC(=O)N[C@H]1CCN(C[C@H]2CN(c3ccc(C#N)c4ncccc34)C[C@@H](C)O2)C1 [ER-894546]	69
C[C@@H]1CN(c2ccc(C#N)c3ncccc23)C[C@H](CN2CCC(NS(=O)(=O)c3ccccc3)CC2)O1 [ER-894149]	31
C[C@@H]1CN(c2ccc(C#N)c3ncccc23)C[C@H](CN2CCN(C(N)=O)CC2)O1 [ER-888330]	154
CC1CN(c2ccc(C#N)c3ncccc23)CC(COc2cnccn2)O1 (stereo not shown) [ER-894552]	17
CC1CN(c2ccc(C#N)c3ncccc23)CC(C(C)O)O1 (stereo not shown) [ER-895200]	26
CC1CCC(NCC2CN(c3ccc(C#N)c4ncccc34)CC(C)O2)CC1 (mixture of isomers) [ER-887442]	47
C[C@@H]1CN(c2ccc(C#N)c3ncccc23)C[C@H](CN2CCCCC2)O1 [ER-888202]	8
CC1CN(c2ccc(C#N)c3ncccc23)CC(CN2CC(N3CCNCC3)C2)O1 (stereo not shown) [ER-890119]	8

SMILES	IC50 [nM]
C[C@@H]1CN(c2ccc(C#N)c3ncccc23)C[C@H](COc2cccc(F)c2)O1 [ER-886606]	15
CC1CN(c2ccc(C#N)c3ncccc23)CC(CN2CCC(C3CCCCC3)CC2)O1 (stereo not shown) [ER-888479]	91
Cc1ccc(OC[C@H]2CN(c3ccc(C#N)c4ncccc34)C[C@@H](C)O2)cc1 [ER-886516]	56
CCOCC1CN(c2ccc(C#N)c3ncccc23)CC(C)O1 (stereo not shown) [ER-885807]	331
Cc1nn(C)cc1S(=O)(=O)NC1CN(C[C@H]2CN(c3ccc(C#N)c4ncccc34)C[C@@H](C)O2)C1 [ER-894159]	42
CC(CO)NC(=O)C1CN(c2ccc(C#N)c3ncccc23)CC(C)O1 (stereo not shown) [ER-897447]	100
C[C@@H]1CN(c2ccc(C#N)c3ncccc23)C[C@H](CNc2cnccn2)O1 [ER-888896]	50
COc1cccc(NC[C@H]2CN(c3ccc(C#N)c4ncccc34)C[C@@H](C)O2)n1 [ER-886859]	107
CC1CN(c2ccc(C#N)c3ncccc23)CC(C(=O)Nc2ncns2)O1 (stereo not shown) [ER-898922]	> 1000
COCCNC(=O)C1CN(c2ccc(C#N)c3ncccc23)CC(C)O1 (stereo not shown) [ER-897385]	142
CC1CN(c2ccc(C#N)c3ncccc23)CC(C(=O)Nc2ccncc2)O1 (stereo not shown) [ER-899282]	34
CC1CN(c2ccc(C#N)c3ncccc23)CC(C(N)=O)O1 (stereo not shown) [ER-895472]	161
CC1CN(c2ccc(C#N)c3ncccc23)CC(CN2CCCC2C)O1 (stereo not shown) [ER-886856]	111
CC1CN(c2ccc(C#N)c3ncccc23)CC(C(=O)NC2CCNC2)O1 (stereo not shown) [ER-897965]	10
Cc1nn(C)cc1S(=O)(=O)NC1CCN(C[C@H]2CN(c3ccc(C#N)c4ncccc34)C[C@@H](C)O2)CC1 [ER-894160]	11
CC(=O)N[C@@H]1CCN(C[C@H]2CN(c3ccc(C#N)c4ncccc34)C[C@@H](C)O2)C1 [ER-890252]	42
CC1CN(c2ccc(C#N)c3ncccc23)CC(COc2ccccn2)O1 (stereo not shown) [ER-895324]	1
CC1CCCC(NCC2CN(c3ccc(C#N)c4ncccc34)CC(C)O2)C1 (stereo not shown) [ER-887146]	38
CCc1cnc(NC[C@H]2CN(c3ccc(C#N)c4ncccc34)C[C@@H](C)O2)nc1 [ER-888701]	18
Cc1cc(NC[C@H]2CN(c3ccc(C#N)c4ncccc34)C[C@@H](C)O2)n(C)n1 [ER-888977]	217
Cc1cc(C=O)cc(-c2ccc(C#N)c3ncccc23)c1 [ER-888200]	16
